Laboratory results: patent publication US11884675B2, “Heterocyclic compounds as triggering receptor expressed on myeloid cells 2 agonists and methods of use” (AMGEN INC., priority 2020, dated 2024)

The compounds below were run against hTREM2 (Homo sapiens, UniProt Q9NZC2) (assay: TREM2 activity by cellular Syk phosphorylation (AlphaScreen/AlphaLISA) in TREM2/DAP12-HEK cells, used for Examples 1-305). Conditions: HEK293 Cells.
Type: cell-based
Parameters: expressed in transfected cells
Excerpt: In vitro Measurement of Triggering Receptor Expressed on Myeloid Cells 2 activity using cellular phosphorylation of Spleen Tyrosine Kinase (“Syk”) Assays used for Examples 1-305
Pharmacological measurements of TREM2 signaling through DAP12 were made with TREM2 and DAP12 overexpressing HEK293 cells stable cell lines that had been single-cell cloned (“TREM2/DAP12-HEK”). The readout of the TREM2 signaling utilized Perkin Elmer AlphaScreen/AlphaLISA technology monitoring the phosphorylation levels of the Syk kinase. TREM2/DAP12-HEK cell lines were cultured in DMEM-F12 (Corning 10-092-CM) supplemented with 1X Penicillin/Streptomycin (Corning 30-002-CI), 1X GlutaMAX (Gibco 35050-061), and 10% Fetal Bovine Serum (Life Technologies 10099) referred to as “HEK Culture Medium”. Suspensions of TREM2/DAP12-HEK cells were prepared in HEK Culture Medium and dispensed into 384-well poly-D-lysine coated microplates (Corning 354661) at a density of 20,000 cells/well using a Multidrop Combi peristaltic microplate dispenser (Thermo), 25 μL volume of cell suspension/well. Plates containing cells were then incubated for 20 hours in a humidified cell culture incubator at 37° C. with 5% CO2 (Thermo). After incubation, culture medium was removed from all wells of each microplate and replaced with 20 μL of “Assay Buffer” comprised of DMEM-F12 (Corning 10-092-CM) supplemented with 1X Penicillin/Streptomycin (Corning 30-002-CI) and 0.1% Pluronic F-68 Polyol (MP Biomedical 092750049) using a Bravo 384-well pipette-based liquid handling system (Agilent). Assay Buffer contained diluted test articles (in 1% final DMSO concentration for compounds) or 100 nM anti-human/mouse TREM2 antibody (R&D Systems MAB17291) as a positive control, or 100 nM or rat IgG2B isotype Ab as a negative control (R&D Systems MAB0061). The plates were incubated with test articles and controls for 45 minutes at room temperature and then the medium was aspirated/removed from each well of the plates. A Multidrop Combi peristaltic liquid handler (Thermo) was used to dispense 15 μL/well of “Cell Lysis Immunoassay Buffer”. The Cell Lysis Immunoassay Buffer contained M-PER Mammalian Protein Extraction Reagent (Pierce/ThermoFisher 78505), 1X Halt Phosphatase Inhibitor Cocktail (ThermoFisher #78427), 0.1875 nM anti-phospho-Syk (Tyr525/526) (C87C1) rabbit mAb (Cell Signaling Technologies catalog #2710), and 1.5 nM biotinylated Mouse anti-human Syk (4D10) antibody (BD Biosciences, catalog #624008). Plates were incubated for 1 hour at room temperature after the addition of the Cell Lysis Immunoassay Buffer. The Multidrop Combi liquid handler was used to dispense 15 μL of AlphaScreen Acceptor Bead Solution containing 7.5 μg/mL anti-rabbit IgG (Fc specific) AlphaLISA Acceptor Beads (Perkin Elmer AL104R) in 1X Immunoassay buffer (Perkin Elmer AL000F) to each well of the microplates. The plates were incubated for 2 hours at room temperature. Following the incubation with the AlphaLISA Acceptor Bead Solution, a Multidrop Combi liquid handler (Thermo) was used to dispense 15 μL of AlphaScreen Donor Bead Solution containing 30 μg/mL of AlphaScreen Streptavidin Donor beads (Perkin Elmer 6760002B) in 1X Immunoassay buffer (Perkin Elmer AL000F) to each well of the microplates. Microplates were incubated for 2 hours protected from light sources as the AlphaScreen reagents are light sensitive. Once the final incubation was completed, an AlphaScreen signal was acquired from the donor and acceptor beads using an Envision high throughput multi-modal microplate reader (Perkin Elmer) calibrated to the plate type with the AlphaScreen mirror and filter-set in 384-well mode, 680 nanometer excitation wavelength. The total measurement time per well was 550 milliseconds with a 180 millisecond excitation time. […]

Sequence of hTREM2 (Q9NZC2 19-230): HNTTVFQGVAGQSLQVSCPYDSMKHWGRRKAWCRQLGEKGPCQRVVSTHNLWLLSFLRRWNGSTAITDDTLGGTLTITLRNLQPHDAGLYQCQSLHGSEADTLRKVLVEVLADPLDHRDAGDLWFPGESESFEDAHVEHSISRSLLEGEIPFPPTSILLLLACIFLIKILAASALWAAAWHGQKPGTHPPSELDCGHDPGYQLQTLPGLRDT
Sequence of hTREM2 (O43914 22-113 partner): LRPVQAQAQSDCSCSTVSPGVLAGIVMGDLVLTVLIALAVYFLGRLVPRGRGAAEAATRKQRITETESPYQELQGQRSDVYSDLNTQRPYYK

Compound	EC50 [nM]	hTREM2 Emax
Cc1nc2nc(N3CCO[C@@H](c4cnn(C)c4)C3)nc([C@@H]3C[C@H]3C(F)(F)F)c2nc1C [Example 57, 6,7-dimethyl-2-((2S)-2-(1-methyl-1H-pyrazol-4-yl)-4-morpholinyl)-4-((1R,2R)-2-(trifluoromethyl)cyclopropyl)pteridine]	500 to 3000	++ (Emax>100 and ≤150)
Cc1ccc2c(C3CCC(F)(F)CC3)nc(N3CCO[C@@H](c4cnn(C)c4)C3)nc2n1 [Example 141, 4-(4,4-difluorocyclohexyl)-7-methyl-2-((2S)-2-(1-methyl-1H-pyrazol-4-yl)-4-morpholinyl)pyrido [2,3-d]pyrimidine]	50 to 500	++ (Emax>100 and ≤150)
Cc1cc([C@H]2CN(c3nc4nc(C)c(C)nc4c([C@H]4C[C@H](C(F)(F)F)C4)n3)CCO2)ccn1 [Example 55]	≤ 50	+++ (Emax>150 and ≤250)
Cc1ncc([C@H]2CN(c3nc(-c4ccc(Cl)cc4F)c4cc(C)c(C)nc4n3)CCO2)cn1 (single isomer, unassigned) [Example 107]	≤ 50	+++ (Emax>150 and ≤250)
Cc1nc2nc(N3CCO[C@@H](c4cnn(C)c4)C3)nc(-c3ccc(C(F)(F)F)nc3)c2nc1C [Example 19, 6,7-dimethyl-2-((2S)-2-(1-methyl-1H-pyrazol-4-yl)-4-morpholinyl)-4-(6-(trifluoromethyl)-3-pyridinyl)pteridine]	≤ 50	+++ (Emax>150 and ≤250)
Cc1cc([C@H]2CN(c3nc4nc(C)c(C)cc4c([C@H]4C[C@H](C(F)(F)F)C4)n3)CCO2)ccn1 [Example 115, 6,7-dimethyl-2-((2S)-2-(2-methyl-4-pyridinyl)-4-morpholinyl)-4-(trans-3-(trifluoromethyl)cyclobutyl)pyrido[2,3-d]pyrimidine]	≤ 50	++ (Emax>100 and ≤150)
Cc1cc2c(-c3ccc(F)cc3F)nc([C@@H]3CCO[C@H](c4cnn(C)c4)C3)nc2nc1C (single isomer, unassigned) [Example 200]	500 to 3000	+++ (Emax>150 and ≤250)
Cc1cc([C@@H]2C[C@H](c3nc(-c4ccc(Cl)cc4F)c4nc(C)c(C)nc4n3)CCO2)ccn1 (single isomer, unassigned) [Example 206]	50 to 500	++++ (Emax>250)
Cc1cnc2c(-c3ccc(Cl)cc3F)nc([C@H]3CCO[C@@H](c4cnc(C)nc4)C3)nc2n1 (single isomer, unassigned) [Example 173]	≤ 50	+++ (Emax>150 and ≤250)
Cc1cnc2c(-c3ccc(Cl)cc3F)nc(N3CCO[C@@H](c4cnn(C5CC5)c4)C3)nc2n1 [Example 2, 4-(4-chloro-2-fluorophenyl)-2-((2S)-2-(1-cyclopropyl-1H-pyrazol-4-yl)-4-morpholinyl)-7-methylpteridine]	≤ 50	+++ (Emax>150 and ≤250)
Cc1nc2nc(C3CCO[C@H](c4cnn(C)c4)C3)nc(-c3ccc(Cl)cc3F)c2nc1C (stereo in doubt) [Example 276, 4-(4-chloro-2-fluorophenyl)-6,7-dimethyl-2-((2S,4R)-2-(1-methyl-1H-pyrazol-4-yl)tetrahydro-2H-pyran-4-yl)pteridine]	50 to 500	++++ (Emax>250)
Cc1nc2cc([C@H]3CCO[C@H](c4cnn(C)c4)C3)nc(-c3ccc(Cl)cc3F)c2nc1C (single isomer, unassigned) [Example 194]	500 to 3000	++++ (Emax>250)
Cc1nc2nc([C@H]3CCO[C@@H](c4cnn(C5CC5)c4)C3)nc(-c3ccc(Cl)cc3F)c2nc1C (single isomer, unassigned) [Example 181]		+++ (Emax>150 and ≤250)
Cc1cc([C@H]2CN(c3nc(-c4ccc(C(F)(F)F)nc4)c4nc(C)c(C)nc4n3)CCO2)cnn1 [Example 299, (S)-4-(6,7-dimethyl-4-(6-(trifluoromethyl)pyridin-3-yl)pteridin-2-yl)-2-(6-methylpyridazin-4-yl)morpholine]	≤ 50	+++ (Emax>150 and ≤250)
